Laboratory results published in patent US5232917A, “Methods, compositions, and compounds for allosteric modulation of the GABA receptor by members of the androstane and pregnane series” (priority 1991, dated 1993).
Read-outs that look alike come from different tables or passages of the source.

Tests used:
[1] = test system: metrazol-induced seizures; assay: Time course of antimetrazol activity of prodrugs; format: in vivo, mice (CF1); settings: 60 mg/kg ip; for responders at 60 mg/kg: Mus musculus
progesterone receptor = molecular target: T1, progesterone receptor (Bos taurus, UniProt F1N712); assay: Inhibition of 3H-progesterone binding to bovine uteral progesterone receptors
T1 construct: from tissue; host or cells: bovine uterus cytosol
T1 sequence (F1N712 1-914): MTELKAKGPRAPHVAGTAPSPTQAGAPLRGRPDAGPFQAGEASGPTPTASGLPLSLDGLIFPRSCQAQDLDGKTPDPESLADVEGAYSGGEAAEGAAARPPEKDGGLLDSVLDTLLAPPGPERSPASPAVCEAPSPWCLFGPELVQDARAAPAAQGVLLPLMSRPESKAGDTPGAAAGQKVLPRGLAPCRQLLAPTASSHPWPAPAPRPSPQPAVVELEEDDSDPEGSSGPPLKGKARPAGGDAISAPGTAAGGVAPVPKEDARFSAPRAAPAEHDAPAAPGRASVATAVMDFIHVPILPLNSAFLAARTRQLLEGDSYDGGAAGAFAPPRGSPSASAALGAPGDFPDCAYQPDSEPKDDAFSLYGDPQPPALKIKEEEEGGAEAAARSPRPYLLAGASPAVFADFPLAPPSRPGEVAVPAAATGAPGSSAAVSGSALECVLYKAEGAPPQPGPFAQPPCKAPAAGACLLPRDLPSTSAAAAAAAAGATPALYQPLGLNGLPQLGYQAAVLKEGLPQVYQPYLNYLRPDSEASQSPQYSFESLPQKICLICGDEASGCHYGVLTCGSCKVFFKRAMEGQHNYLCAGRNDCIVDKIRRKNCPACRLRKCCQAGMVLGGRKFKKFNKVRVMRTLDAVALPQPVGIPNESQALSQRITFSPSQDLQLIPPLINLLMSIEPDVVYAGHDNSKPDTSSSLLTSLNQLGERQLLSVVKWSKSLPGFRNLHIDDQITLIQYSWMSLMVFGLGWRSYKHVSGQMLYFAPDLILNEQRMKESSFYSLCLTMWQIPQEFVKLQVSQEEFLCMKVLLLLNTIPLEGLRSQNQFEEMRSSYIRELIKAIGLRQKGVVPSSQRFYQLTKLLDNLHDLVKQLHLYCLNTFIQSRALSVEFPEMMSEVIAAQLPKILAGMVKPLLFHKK
Method: The hormonal activity of drugs described herein was further studied through testing their potential estrogenic, progestinic, mineralocorticoid and glucocorticoid activities. These activities were analyzed by monitoring the ability of the drugs to inhibit binding of the steroid hormones to their respective hormone receptors.
For the data presented in Table 9, bovine uteri cytosol was isolated as they were for Table 7 and used for following binding to progesterone receptors by following the inhibition of ^3 H-progesterone, the natural ligand.

[2] = molecular target: GABA receptor-chloride ionophore complex (GR complex); assay: [35S]TBPS binding modulation assay; settings: for Max. Inhib., maximal % of specifically bound [35S]-TBPS displaced: saturating concentrations of test compound
[3] = 1 hr, read-out: Antimetrazol activity, % of animals protected, 1 hr
[4] = 4 hr, read-out: Antimetrazol activity, % of animals protected, 4 hr
[5] = read-out: % of inhibition of 3H-progesterone binding, A, competitor 10^-5 M, 0.15 nM 3H-progesterone
[6] = read-out: % of inhibition of 3H-progesterone binding, A, competitor 10^-6 M, 0.15 nM 3H-progesterone
[7] = read-out: % of inhibition of 3H-progesterone binding, B, competitor 10^-5 M, 0.25 nM 3H-progesterone
[8] = read-out: % of inhibition of 3H-progesterone binding, B, competitor 10^-6 M, 0.25 nM 3H-progesterone
[9] = read-out: IC50, inhibition of [35S]-TBPS binding, +5 μM GABA, in the presence of 5 μM GABA
[10] = read-out: IC50, inhibition of [35S]-TBPS binding, No GABA, washed synaptoneurosomes, no GABA added
[11] = washed synaptoneurosomes, no GABA added

Compound: CC(=O)[C@H]1CC[C@H]2[C@@H]3CC[C@H]4C[C@H](OC(=O)C(C)C)CC[C@]4(C)[C@H]3CC[C@]12C
- responders at 60 mg/kg [1, 3]: 75%
- responders at 60 mg/kg [1, 4]: 29%

Compound: CC(=O)[C@H]1CC[C@H]2[C@@H]3CC[C@H]4C[C@H](OC(=O)C5=CN(C)C=CC5)CC[C@]4(C)[C@H]3CC[C@]12C
- Antimetrazol activity, % of animals protected, 20 hr [1]: 63%
- responders at 60 mg/kg [1, 3]: 0%
- responders at 60 mg/kg [1, 4]: 0%

Compound: CCC(=O)O[C@@H]1CC[C@@]2(C)[C@@H](CC[C@@H]3[C@@H]2CC[C@]2(C)[C@@H](C(C)=O)CC[C@@H]32)C1
- responders at 60 mg/kg [1, 3]: 75%
- responders at 60 mg/kg [1, 4]: 0%

Compound: CC(=O)[C@H]1CC[C@H]2[C@@H]3CC[C@@H]4C[C@H](O)CC[C@]4(C)[C@H]3CC[C@]12C [5β-pregnan-3α,ol-20-one]
- inhibition at 10 µM (progesterone receptor; [5]): 17%
- inhibition at 1 µM (progesterone receptor; [6]): 9%
- inhibition at 10 µM (progesterone receptor; [7]): 13%
- inhibition at 1 µM (progesterone receptor; [8]): 1%

Compound: CC(=O)[C@H]1CC[C@H]2[C@@H]3CC[C@H]4C[C@H](OC(=O)c5ccccc5)CC[C@]4(C)[C@H]3CC[C@]12C
- responders at 60 mg/kg [1, 3]: 33%

Compound: CC(=O)OCC(=O)[C@H]1CC[C@H]2[C@@H]3CC[C@H]4C[C@H](OC(C)=O)CC[C@]4(C)[C@H]3CC[C@]12C
- responders at 60 mg/kg [1, 3]: 0%
- responders at 60 mg/kg [1, 4]: 0%

Compound: C[C@]12CCC(=O)C[C@@H]1CC[C@@H]1[C@@H]2CC[C@]2(C)[C@@H](O)CC[C@@H]12 [5α-ANDROSTAN-17β-OL-3-ONE, 5α-ANDROSTAN-17β-OL-3- ONE, reference compound]
- IC50 [2, 9]: 18 µM
- IC50 [2, 10]: > 100 µM
- Max. Inhib., maximal % of specifically bound [35S]-TBPS displaced [2]: 52%

Compound: C[C@]12CC[C@@H](O)C[C@@H]1CC[C@H]1[C@@H]3CC[C@H](C(=O)CO)[C@@]3(C)CC(=O)[C@@H]12 [5α-PREGNAN-3α,21-DIOL-11,20-DIONE, 5α-PREGNAN-3α,21-DIOL- 11,20-DIONE]
- IC50 [2, 9]: 5.5 µM
- IC50 [2, 10]: > 100 µM

Compound: C[C@]12CC[C@@H](O)C[C@@H]1CC[C@@H]1[C@@H]2CC[C@]2(C)[C@@H](C(=O)CCl)CC[C@@H]12 [21-CHLORO-5α-PREGNAN-3α-OL-20-ONE]
- IC50 [2, 9]: 0.08 µM
- Max. Inhib., maximal % of specifically bound [35S]-TBPS displaced [2]: 100%

Compound: CC(=O)[C@H]1CC[C@H]2[C@@H]3CC[C@H]4C[C@H](OC(=O)C5CCC5)CC[C@]4(C)[C@H]3CC[C@]12C
- Antimetrazol activity, % of animals protected, 20 hr [1]: 17%
- responders at 60 mg/kg [1, 3]: 17%

Compound: C[C@]12CC[C@@H](O)C[C@@H]1CC[C@@H]1[C@@H]2CC[C@]2(C)[C@@H](C(=O)O)CC[C@@H]12 [3α-HYDROXY-5α-ANDROSTAN-17β-CARBOXYLATE, 3α-Hydroxy-5α-androstane-17β-carboxylic acid]
- IC50 [2, 9]: 2.68 µM
- Max. Inhib., maximal % of specifically bound [35S]-TBPS displaced [2]: 63%

Compound: CC(C)CCC[C@@H](C)[C@H]1CC[C@H]2[C@@H]3CC=C4C[C@@H](O)CC[C@]4(C)[C@H]3CC[C@]12C [CHOLESTEROL, reference compound]
- IC50, inhibition of [35S]-TBPS binding, +5 μM GABA ([2]; in the presence of 5 μM GABA): Inactive
- potency/activity at the GR complex ([2]; modulation of [35S]TBPS binding): essentially inactive
- Max. Inhib., maximal % of specifically bound [35S]-TBPS displaced [2]: 0%
- IC50, inhibition of [35S]-TBPS binding, No GABA [2, 11]: Inactive

Compound: CC(=O)[C@H]1CC[C@H]2[C@@H]3CC[C@H]4C[C@@](C)(O)CC[C@]4(C)[C@H]3CC[C@]12C [3β-HYDROXY-3α-METHYL-5α-PREGNAN-20-ONE, 3β-HYDROXY-3α-METHYL-5α- PREGNAN-20-ONE]
- IC50 [2, 9]: 7.4 µM
- Max. Inhib., maximal % of specifically bound [35S]-TBPS displaced [2]: 55%

Compound: CC(=O)C1=CC[C@H]2[C@@H]3CC[C@@H]4C[C@H](O)CC[C@]4(C)[C@H]3CC[C@]12C [3α-HYDROXY-5β-PREGN-16-EN-20-ONE]
- IC50 [2, 9]: 1 µM
- Max. Inhib., maximal % of specifically bound [35S]-TBPS displaced [2]: 100%

Compound: C[C@@H](O)[C@H]1CC[C@H]2[C@@H]3CC[C@H]4C[C@H](O)CC[C@]4(C)[C@H]3CC[C@]12C [5α-PREGNAN-3α,20β-DIOL]
- IC50 [2, 9]: 1 µM
- Max. Inhib., maximal % of specifically bound [35S]-TBPS displaced [2]: 100%

Compound: CO[C@@H]1C[C@H]2[C@@H]3CC[C@H]4C[C@H](O)CC[C@]4(C)[C@H]3CC[C@]2(C)[C@H]1C(C)=O [3α-HYDROXY-5α-PREGNAN-16α-METHOXY-20-ONE]
- IC50 [2, 9]: 4.5 µM
- Max. Inhib., maximal % of specifically bound [35S]-TBPS displaced [2]: 73%

Compound: CC(=O)[C@H]1CC[C@H]2[C@@H]3CC[C@H]4C[C@@H]5O[C@@H]5C[C@]4(C)[C@H]3CC[C@]12C [2,3-EPOXY-5α-PREGNAN-20-ONE, 2α,3α-Epoxy-5α-pregnan-20-one, reference compound]
- IC50 [2, 9]: 100 µM

Compound: C[C@]12C[C@H](O)[C@H]3[C@@H](CCC4=CC(=O)CC[C@@]43C)[C@@H]1CC[C@@H]2C(=O)CO [4-PREGNEN-11b,21-DIOL- 3,20-DIONE, reference compound]
- IC50 [2, 9]: > 100 µM
- Max. Inhib., maximal % of specifically bound [35S]-TBPS displaced [2]: 21%
- IC50, inhibition of [35S]-TBPS binding, No GABA [2, 11]: Inactive

Compound: C[C@H](O)[C@H]1CC[C@H]2[C@@H]3CC[C@@H]4C[C@H](O)CC[C@]4(C)[C@H]3CC[C@]12C [5β-pregnan-3α,20α-diol]
- inhibition at 10 µM (progesterone receptor; [5]): 1%
- inhibition at 10 µM (progesterone receptor; [7]): 1%

Compound: CC(C)(O)[C@H]1CC[C@H]2[C@@H]3CC[C@H]4C[C@](C)(O)CC[C@]4(C)[C@H]3CC[C@]12C [3α,20-dihydroxy-3β,20-dimethyl-5α-pregnane]
- inhibition at 10 µM (progesterone receptor; [5]): 5%
- inhibition at 1 µM (progesterone receptor; [6]): 8%
- inhibition at 10 µM (progesterone receptor; [7]): 0%
- inhibition at 1 µM (progesterone receptor; [8]): 0%
- Max. Inhib., maximal % of specifically bound [35S]-TBPS displaced [2]: 50%

Compound: CC(=O)[C@H]1CC[C@H]2[C@@H]3CC=C4C[C@@H](O)CC[C@]4(C)[C@H]3CC[C@]12C [5-PREGNEN-3β-OL-20-ONE (PREGNENOLONE), 5-PREGNEN-3β-OL-20-ONE, reference compound]
- IC50 [2, 9]: > 100 µM
- Max. Inhib., maximal % of specifically bound [35S]-TBPS displaced [2]: 30%
- IC50, inhibition of [35S]-TBPS binding, No GABA [2, 11]: Inactive

Compound: C[C@]12CC[C@@H](O)C[C@@H]1CC[C@@H]1[C@@H]2CC[C@]2(C)[C@@H](O)CC[C@@H]12 [5α-ANDROSTAN-3α,17β-DIOL, 5α-ANDROSTAN-3α ,17β-DIOL]
- IC50 [2, 9]: 1 µM
- IC50 [2, 10]: 15 µM
- Max. Inhib., maximal % of specifically bound [35S]-TBPS displaced [2]: 100%

Compound: C/C=C1/CC[C@H]2[C@@H]3CC[C@H]4C[C@H](O)CC[C@]4(C)[C@H]3CC[C@]12C [3α-HYDROXY-5α-CIS-PREGN-17(20)-ENE, 3α-hydroxy-(5α)-cis-pregn-17(20)-ene]
- IC50 [2, 9]: 0.068 µM
- Max. Inhib., maximal % of specifically bound [35S]-TBPS displaced [2]: 100%

Compound: CC(=O)[C@H]1CC[C@H]2[C@@H]3CC[C@H]4C[C@H](O)CC[C@]4(C)[C@H]3C(=O)C[C@]12C [alphaxalone, 5α-PREGNAN-3α-OL-11,20-DIONE, reference compound]
- IC50 [2, 9]: 0.264 µM
- IC50 [2, 10]: 11 µM

Compound: C[C@]12CC[C@@H]3c4ccc(O)cc4CC[C@H]3[C@@H]1CC[C@@H]2O [17β-ESTRADIOL, reference compound]
- IC50, inhibition of [35S]-TBPS binding, +5 μM GABA ([2]; in the presence of 5 μM GABA): Inactive
- Max. Inhib., maximal % of specifically bound [35S]-TBPS displaced [2]: 0%
- IC50, inhibition of [35S]-TBPS binding, No GABA [2, 11]: Inactive

Compound: CC(=O)C1=CC[C@H]2[C@@H]3CC[C@H]4C[C@H](O)CC[C@]4(C)[C@H]3CC[C@]12C [3α-HYDROXY-5α-PREGN-16-EN-20-ONE]
- IC50 [2, 9]: 0.161 µM
- Max. Inhib., maximal % of specifically bound [35S]-TBPS displaced [2]: 100%
